Test systems include COLO 205; HCT-116; HCT-15; HL-60; IGROV-1; K562; MDA-MB-231; NCI-H226; PC-3; RPMI-8226; SF-268; SNB-75; T47D; TK-10; CAKI-1; NCI-H522; SK-OV-3; UACC-62.
Common to all, as to assay: NCI anticancer screen, dose series, 48 h

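1) Cells in 96-well plates. 2) Compound, 48 h, 5 concentrations. 3) Linear interpolation between surrounding doses. 4) Unreached endpoint = highest concentration. GI50 marks 50% less growth.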 Active and inactive are the calls of the source. Cut-off read from the data, not from the text of the source: active = GI50 up to about 1.1 µM and inactive = higher. Bounds are passed on as bounds.

For `Cc1cc(C)cc(Nc2cc(O)nc(O)n2)c1`, the GI50 was > 100 µM (inactive) with COLO 205; > 100 µM (inactive) in the experiment on HCT-116; more than 100 µM with HCT-15; > 100 µM (inactive) with HL-60; > 100 µM (inactive) in the experiment on IGROV-1; > 100 µM (inactive) with K562. For the same compound, the GI50 in the experiment with MDA-MB-231 was > 100 µM (inactive); in the experiment on NCI-H226, 58.3 µM (inactive); with PC-3, > 100 µM (inactive); with RPMI-8226 it was > 100 µM (inactive); in the experiment on SF-268 it was > 100 µM (inactive); in the experiment on SNB-75, 15.8 µM (inactive). Moreover, the values for the GI50 in the experiment with T47D and with TK-10 were 0.0649 µM (active) and > 100 µM (inactive), respectively.
With `O=C1C=CC(=O)c2c1ccc1c3ccccc3n(CCCCCCCCn3c4ccccc4c4ccc5c(c43)C(=O)C=CC5=O)c21`, the GI50 was > 100 µM (inactive) in the experiment on CAKI-1; > 100 µM (inactive) with COLO 205; > 100 µM (inactive) with HCT-116; more than 100 µM with HCT-15; > 100 µM (inactive) in the experiment with HL-60; > 100 µM (inactive) in the experiment with IGROV-1. For the same compound, the GI50 in the experiment with K562, with MDA-MB-231, with NCI-H226, in the experiment with NCI-H522, in the experiment on PC-3 and in the experiment on RPMI-8226 was > 100 µM (inactive) each time. The GI50 in the experiment with SF-268, in the experiment with SK-OV-3, in the experiment on T47D, with TK-10 and in the experiment with UACC-62 was > 100 µM (inactive) each time.
As for `Cc1c(C)c(C)n(C2OC(CO)C(O)C(O)C2O)c(=S)c1C#N` (stereo not drawn), the GI50 in the experiment on COLO 205 was > 100 µM (inactive); in the experiment with HCT-116, > 100 µM (inactive); with HCT-15, more than 100 µM; in the experiment on HL-60 it was > 100 µM (inactive); in the experiment on IGROV-1, > 100 µM (inactive); in the experiment with K562 it was > 100 µM (inactive). In addition, the GI50 in the experiment on MDA-MB-231, with NCI-H226, with NCI-H522, in the experiment with PC-3, in the experiment with SF-268 and with SK-OV-3 was > 100 µM (inactive) each time. The GI50 in the experiment on SNB-75, with T47D, in the experiment with TK-10 and with UACC-62 was > 100 µM (inactive) each time.
Take `CCCCCNC(=O)OC1CCn2c1nc1c2C(=O)C(C)=C(N2CC2)C1=O` (stereo not drawn): the GI50 is 1.2 µM (inactive) in the experiment on CAKI-1; 1.41 µM (inactive) with COLO 205; 1.24 µM (inactive) in the experiment on HCT-116; 1.92 µM in the experiment on HCT-15; 6.05 µM (inactive) in the experiment with HL-60; 1.37 µM (inactive) in the experiment on IGROV-1. For the same compound, the GI50 in the experiment on K562 is 1.67 µM (inactive); with MDA-MB-231, 2.01 µM (inactive); with NCI-H226 it was 2 µM (inactive); with NCI-H522 it was 0.769 µM (active); in the experiment on PC-3 it was 1.05 µM (active); in the experiment on RPMI-8226, 2.4 µM (inactive). The GI50 with SF-268 was 0.946 µM (active); in the experiment on SNB-75 it was 1.22 µM (inactive); in the experiment on T47D, 3.23 µM (inactive); in the experiment on TK-10, 4.83 µM (inactive); with UACC-62, 1.75 µM (inactive).
For `COc1cc(S(=O)(=O)N/N=C/c2cc(Br)c(O)c(OC)c2)c(OC)cc1NC(C)=O`, the GI50 was 91 µM (inactive) in the experiment on CAKI-1; 23.4 µM (inactive) in the experiment with COLO 205; 30.6 µM (inactive) in the experiment on HCT-116; 52.6 µM with HCT-15; 25 µM (inactive) in the experiment with HL-60; 50.8 µM (inactive) in the experiment on IGROV-1. For the same compound, the GI50 in the experiment on K562 is 41.5 µM (inactive); with MDA-MB-231, 52.6 µM (inactive); in the experiment on NCI-H226, > 100 µM (inactive); in the experiment on PC-3 it was 62.2 µM (inactive); with RPMI-8226, 47.2 µM (inactive); with SK-OV-3 it was > 100 µM (inactive). The GI50 was > 100 µM (inactive) in the experiment on SNB-75, 41.3 µM (inactive) in the experiment with T47D and 77.3 µM (inactive) in the experiment on TK-10.
`Cc1ccc(S(=O)(=O)NC(=O)NC(Cc2c[nH]c3ccccc23)C(=O)O)cc1` (stereo not drawn): the GI50 in the experiment with COLO 205 is > 100 µM (inactive); with HCT-116 it was > 100 µM (inactive); with HCT-15, more than 100 µM; in the experiment on HL-60, > 100 µM (inactive); in the experiment on IGROV-1 it was > 100 µM (inactive); in the experiment on K562 it was > 100 µM (inactive). Moreover, the GI50 in the experiment with MDA-MB-231, in the experiment on NCI-H522, in the experiment with PC-3, with RPMI-8226, in the experiment on SF-268 and in the experiment on SK-OV-3 was > 100 µM (inactive) throughout. Besides, the GI50 in the experiment on SNB-75, in the experiment on T47D and in the experiment on TK-10 was > 100 µM (inactive) throughout.
Regarding `Nc1nc(Cl)nc2c1ncn2C1CCC(COP(=O)(O)OP(=O)(O)OP(=O)(O)O)O1` (stereo not drawn), the GI50 is 6.89 µM (inactive) with CAKI-1; 20.5 µM (inactive) in the experiment on COLO 205; 35.2 µM (inactive) in the experiment with HCT-116; 34.8 µM in the experiment on HCT-15; 28.5 µM (inactive) in the experiment on HL-60; 30.5 µM (inactive) in the experiment on IGROV-1. Also, the GI50 was 26.8 µM (inactive) in the experiment with MDA-MB-231; 27.7 µM (inactive) in the experiment with NCI-H226; 25.8 µM (inactive) with NCI-H522; 23.1 µM (inactive) in the experiment with PC-3; 47.9 µM (inactive) with SF-268; 57.3 µM (inactive) in the experiment with SK-OV-3. In addition, the GI50 was 34.4 µM (inactive) in the experiment with SNB-75, 23.8 µM (inactive) with T47D, 25.1 µM (inactive) in the experiment on TK-10 and 18.1 µM (inactive) with UACC-62.
For `C=CCN1C[C@H](C)N([C@@H](c2ccc(C(=O)N3CCCCC3)cc2)c2cccc(OC)c2)C[C@H]1C`, the GI50 in the experiment with CAKI-1 is 66.4 µM (inactive); in the experiment with COLO 205, 16.6 µM (inactive); in the experiment with HCT-116, 28.6 µM (inactive); in the experiment with HCT-15, 29.6 µM; in the experiment with HL-60, 1.35 µM (inactive); in the experiment on IGROV-1 it was 63.2 µM (inactive). In addition, the GI50 is 20.6 µM (inactive) with K562; 30.1 µM (inactive) with MDA-MB-231; 45.4 µM (inactive) with NCI-H226; 21.7 µM (inactive) in the experiment with NCI-H522; 21.9 µM (inactive) in the experiment on PC-3; 52.7 µM (inactive) in the experiment on SF-268. The GI50 is 89.5 µM (inactive) in the experiment with SK-OV-3; 40 µM (inactive) in the experiment on SNB-75; 24.5 µM (inactive) in the experiment on T47D; 40 µM (inactive) in the experiment on TK-10; 21.5 µM (inactive) with UACC-62.
For `CCOC(=O)c1cn2c(n1)sc1c(Cl)c(Cl)ccc12`, the GI50 was 9.86 µM (inactive) with CAKI-1; 6.1 µM (inactive) with COLO 205; 5.69 µM (inactive) in the experiment on HCT-116; 5.07 µM with HCT-15; 13.8 µM (inactive) in the experiment on IGROV-1; 3.96 µM (inactive) in the experiment on K562. Moreover, the GI50 with MDA-MB-231 is 26.7 µM (inactive); with NCI-H226, 14.8 µM (inactive); with NCI-H522, 4.11 µM (inactive); with PC-3, 18.3 µM (inactive); in the experiment with RPMI-8226 it was 5.02 µM (inactive); in the experiment on SF-268, 16.9 µM (inactive). For the same compound, the GI50 is > 51.8 µM (inactive) in the experiment with SK-OV-3; 15 µM (inactive) with SNB-75; 0.91 µM (active) in the experiment on T47D; 24.4 µM (inactive) in the experiment with TK-10; 20.2 µM (inactive) in the experiment on UACC-62.
As to `CC(C)CCC[C@@H](C)[C@H]1CCC2C3CC=C4C[C@@H](Oc5c6ccccc6nc6ccccc56)CCC4C3CCC21` (stereo partly drawn), the GI50 is > 50 µM (inactive) in the experiment with CAKI-1; > 50 µM (inactive) with COLO 205; > 50 µM (inactive) in the experiment on HCT-116; more than 50 µM in the experiment with HCT-15; > 50 µM (inactive) in the experiment on HL-60; > 50 µM (inactive) in the experiment with IGROV-1. Besides, the GI50 is > 50 µM (inactive) with K562; 39.9 µM (inactive) with MDA-MB-231; > 50 µM (inactive) with NCI-H226; 36.4 µM (inactive) in the experiment on NCI-H522; > 50 µM (inactive) with PC-3; > 50 µM (inactive) in the experiment with SF-268. Also, the GI50 in the experiment with SK-OV-3, in the experiment on T47D, in the experiment on TK-10 and with UACC-62 was > 50 µM (inactive) each time.
With `CC1=N[C@@](C)(C2CC3C=CC2C3=O)COC1=O` (stereo partly drawn), the GI50 in the experiment on CAKI-1, in the experiment on COLO 205, in the experiment on HCT-116, in the experiment on HL-60, in the experiment on IGROV-1 and in the experiment with K562 was > 100 µM (inactive) each time. Moreover, the GI50 in the experiment on MDA-MB-231, with NCI-H226, in the experiment on NCI-H522, in the experiment with PC-3, with SF-268 and in the experiment on SK-OV-3 was > 100 µM (inactive) each time. Further, the GI50 in the experiment with SNB-75, with T47D, with TK-10 and in the experiment with UACC-62 was > 100 µM (inactive) in each case.
With `O=[N+]([O-])C(=C1NCCN1)C(Cl)=C(Cl)Cl`, the GI50 in the experiment on CAKI-1 is > 100 µM (inactive); in the experiment with COLO 205 it was > 100 µM (inactive); in the experiment on HCT-116, > 100 µM (inactive); in the experiment on HCT-15 it was more than 100 µM; in the experiment with HL-60, 62.2 µM (inactive); in the experiment with IGROV-1, > 100 µM (inactive). Also, the GI50 in the experiment with K562, in the experiment with MDA-MB-231, with NCI-H226, with NCI-H522, in the experiment with PC-3 and in the experiment on RPMI-8226 was > 100 µM (inactive) each time. In addition, the GI50 in the experiment on SF-268, with SK-OV-3, in the experiment with T47D, with TK-10 and in the experiment on UACC-62 was > 100 µM (inactive) throughout.
